Legend:
[1] = test system: UACC-62; test: NCI-60 single-dose screen; type: cell-based; conditions: Homo sapiens, single dose 10 µM, '-' = no inhibition, read-out: % Growth Inhibition
Experimental: (§1) The National Cancer Institute’s Developmental Therapeutic Program (www.dtp.nci.nih.gov) has tested compounds 9–29 (except compounds 21 and 22) against 60 cancer cell lines from nine types (leukemia, lung, colon, CNS, melanoma, ovarian, renal, prostate, and breast cancer) at a single dose (10 μM) ([El-Sherief et al., 2018]). […] The most sensitive cells included leukemia (SR, K-562, and MOLT-4), lung (NCI-H522, […], and EKVX), breast (MCF-7 and T-47D), colon (HCT-15 and HT-29), and ovarian (NCI/ADR-RES).
(§2) The National Cancer Institute’s Developmental Therapeutic Program (www.dtp.nci.nih.gov) evaluated compounds 9–29 (excluding 21 and 22) against 60 cancer cell lines from nine categories (leukemia, lung, colon, CNS, melanoma, ovarian, renal, prostate, and breast cancer) at a single dose (10 μM) ([El-Sherief et al., 2018]). See Supplementary Material A1 for more details.

[2] = test system: ACHN 1; test: NCI-60 single-dose screen; type: cell-based; conditions: Homo sapiens, single dose 10 µM, '-' = no inhibition, read-out: % Growth Inhibition
Experimental: as §1, §2

[3] = test system: HT29; test: NCI-60 single-dose screen; type: cell-based; conditions: Homo sapiens, HT-29, single dose 10 µM, '-' = no inhibition, read-out: % Growth Inhibition
Experimental: as §1, §2

[4] = test system: SK-OV-3; test: NCI-60 single-dose screen; type: cell-based; conditions: Homo sapiens, single dose 10 µM, '-' = no inhibition, read-out: % Growth Inhibition
Experimental: as §1, §2

[5] = test system: SN12C; test: NCI-60 single-dose screen; type: cell-based; conditions: Homo sapiens, single dose 10 µM, '-' = no inhibition, read-out: % Growth Inhibition
Experimental: as §1, §2

[6] = test system: UACC-257; test: NCI-60 single-dose screen; type: cell-based; conditions: Homo sapiens, single dose 10 µM, '-' = no inhibition, read-out: % Growth Inhibition
Experimental: as §1, §2

[7] = test system: IGROV1; test: NCI-60 single-dose screen; type: cell-based; conditions: Homo sapiens, IGROV-1, single dose 10 µM, '-' = no inhibition, read-out: % Growth Inhibition
Experimental: as §1, §2

[8] = test system: CCRF-CEM; test: NCI-60 single-dose screen; type: cell-based; conditions: Homo sapiens, single dose 10 µM, '-' = no inhibition, read-out: % Growth Inhibition
Experimental: as §1, §2

[9] = test system: SK-MEL-2; test: NCI-60 single-dose screen; type: cell-based; conditions: Homo sapiens, single dose 10 µM, '-' = no inhibition, read-out: % Growth Inhibition
Experimental: as §1, §2

[10] = test system: MALME-3M; test: NCI-60 single-dose screen; type: cell-based; conditions: Homo sapiens, single dose 10 µM, '-' = no inhibition, read-out: % Growth Inhibition
Experimental: as §1, §2

[11] = test system: BT-549; test: NCI-60 single-dose screen; type: cell-based; conditions: Homo sapiens, single dose 10 µM, '-' = no inhibition, read-out: % Growth Inhibition
Experimental: as §1, §2

[12] = test system: HCC-2998; test: NCI-60 single-dose screen; type: cell-based; conditions: Homo sapiens, single dose 10 µM, '-' = no inhibition, read-out: % Growth Inhibition
Experimental: as §1, §2

[13] = test system: MOLT-4; test: NCI-60 single-dose screen; type: cell-based; conditions: Homo sapiens, single dose 10 µM, '-' = no inhibition, read-out: % Growth Inhibition
Experimental: as §1, §2

[14] = test system: SNB-19; test: NCI-60 single-dose screen; type: cell-based; conditions: Homo sapiens, single dose 10 µM, '-' = no inhibition, read-out: % Growth Inhibition
Experimental: as §1, §2

[15] = test system: MCF7; test: NCI-60 single-dose screen; type: cell-based; conditions: Homo sapiens, single dose 10 µM, '-' = no inhibition, read-out: % Growth Inhibition
Experimental: as §1, §2

[16] = test system: NCI-H460; test: NCI-60 single-dose screen; type: cell-based; conditions: Homo sapiens, single dose 10 µM, '-' = no inhibition, read-out: % Growth Inhibition
Experimental: as §1, §2

[17] = test system: EKVX; test: NCI-60 single-dose screen; type: cell-based; conditions: Homo sapiens, single dose 10 µM, '-' = no inhibition, read-out: % Growth Inhibition
Experimental: as §1, §2

[18] = test system: NCI-H522; test: NCI-60 single-dose screen; type: cell-based; conditions: Homo sapiens, single dose 10 µM, '-' = no inhibition, read-out: % Growth Inhibition
Experimental: as §1, §2

[19] = test system: NCI-H23; test: NCI-60 single-dose screen; type: cell-based; conditions: Homo sapiens, single dose 10 µM, '-' = no inhibition, read-out: % Growth Inhibition
Experimental: as §1, §2

[20] = test system: CAKI-1; test: NCI-60 single-dose screen; type: cell-based; conditions: Homo sapiens, single dose 10 µM, '-' = no inhibition, read-out: % Growth Inhibition
Experimental: as §1, §2

[21] = test system: MDA-MB231/ATCC; test: NCI-60 single-dose screen; type: cell-based; conditions: Homo sapiens, MDA-MB-231, single dose 10 µM, '-' = no inhibition, read-out: % Growth Inhibition
Experimental: as §1, §2

[22] = test system: A498; test: NCI-60 single-dose screen; type: cell-based; conditions: Homo sapiens, single dose 10 µM, '-' = no inhibition, read-out: % Growth Inhibition
Experimental: as §1, §2

[23] = test system: HCT-15; test: NCI-60 single-dose screen; type: cell-based; conditions: Homo sapiens, single dose 10 µM, '-' = no inhibition, read-out: % Growth Inhibition
Experimental: as §1, §2

[24] = test system: LOX IMVI; test: NCI-60 single-dose screen; type: cell-based; conditions: Homo sapiens, single dose 10 µM, '-' = no inhibition, read-out: % Growth Inhibition
Experimental: as §1, §2

[25] = test system: K-562; test: NCI-60 single-dose screen; type: cell-based; conditions: Homo sapiens, K562, single dose 10 µM, '-' = no inhibition, read-out: % Growth Inhibition
Experimental: as §1, §2

[26] = test system: KM12; test: NCI-60 single-dose screen; type: cell-based; conditions: Homo sapiens, single dose 10 µM, '-' = no inhibition, read-out: % Growth Inhibition
Experimental: as §1, §2

[27] = test system: SK-MEL-28; test: NCI-60 single-dose screen; type: cell-based; conditions: Homo sapiens, single dose 10 µM, '-' = no inhibition, read-out: % Growth Inhibition
Experimental: as §1, §2

[28] = test system: SW-620; test: NCI-60 single-dose screen; type: cell-based; conditions: Homo sapiens, single dose 10 µM, '-' = no inhibition, read-out: % Growth Inhibition
Experimental: as §1, §2

[29] = test system: SR; test: NCI-60 single-dose screen; type: cell-based; conditions: Homo sapiens, single dose 10 µM, '-' = no inhibition, read-out: % Growth Inhibition
Experimental: as §1, §2

[30] = test system: RPMI-8226; test: NCI-60 single-dose screen; type: cell-based; conditions: Homo sapiens, single dose 10 µM, '-' = no inhibition, read-out: % Growth Inhibition
Experimental: as §1, §2

[31] = test system: NCI/ADR-RES; test: NCI-60 single-dose screen; type: cell-based; conditions: Homo sapiens, single dose 10 µM, '-' = no inhibition, read-out: % Growth Inhibition
Experimental: as §1, §2

[32] = test system: SF-268; test: NCI-60 single-dose screen; type: cell-based; conditions: Homo sapiens, single dose 10 µM, '-' = no inhibition, read-out: % Growth Inhibition
Experimental: as §1, §2

[33] = test system: PC-3; test: NCI-60 single-dose screen; type: cell-based; conditions: Homo sapiens, single dose 10 µM, '-' = no inhibition, read-out: % Growth Inhibition
Experimental: as §1, §2

[34] = test system: TK-10; test: NCI-60 single-dose screen; type: cell-based; conditions: Homo sapiens, single dose 10 µM, '-' = no inhibition, read-out: % Growth Inhibition
Experimental: as §1, §2

[35] = test system: OVCAR-8; test: NCI-60 single-dose screen; type: cell-based; conditions: Homo sapiens, single dose 10 µM, '-' = no inhibition, read-out: % Growth Inhibition
Experimental: as §1, §2

[36] = test system: SF-295; test: NCI-60 single-dose screen; type: cell-based; conditions: Homo sapiens, single dose 10 µM, '-' = no inhibition, read-out: % Growth Inhibition
Experimental: as §1, §2

[37] = test system: HL-60(TB); test: NCI-60 single-dose screen; type: cell-based; conditions: Homo sapiens, single dose 10 µM, '-' = no inhibition, read-out: % Growth Inhibition
Experimental: as §1, §2

[38] = test system: MDA-MB-435; test: NCI-60 single-dose screen; type: cell-based; conditions: Homo sapiens, single dose 10 µM, '-' = no inhibition, read-out: % Growth Inhibition
Experimental: as §1, §2

[39] = test system: SNB-75; test: NCI-60 single-dose screen; type: cell-based; conditions: Homo sapiens, single dose 10 µM, '-' = no inhibition, read-out: % Growth Inhibition
Experimental: as §1, §2

[40] = test system: NCI-H322M; test: NCI-60 single-dose screen; type: cell-based; conditions: Homo sapiens, single dose 10 µM, '-' = no inhibition, read-out: % Growth Inhibition
Experimental: as §1, §2

[41] = test system: M14; test: NCI-60 single-dose screen; type: cell-based; conditions: Homo sapiens, single dose 10 µM, '-' = no inhibition, read-out: % Growth Inhibition
Experimental: as §1, §2

[42] = test system: DU-145; test: NCI-60 single-dose screen; type: cell-based; conditions: Homo sapiens, single dose 10 µM, '-' = no inhibition, read-out: % Growth Inhibition
Experimental: as §1, §2

[43] = test system: SF-539; test: NCI-60 single-dose screen; type: cell-based; conditions: Homo sapiens, single dose 10 µM, '-' = no inhibition, read-out: % Growth Inhibition
Experimental: as §1, §2

[44] = test system: UO-31; test: NCI-60 single-dose screen; type: cell-based; conditions: Homo sapiens, single dose 10 µM, '-' = no inhibition, read-out: % Growth Inhibition
Experimental: as §1, §2

[45] = test system: MDA-MB-468; test: NCI-60 single-dose screen; type: cell-based; conditions: Homo sapiens, single dose 10 µM, '-' = no inhibition, read-out: % Growth Inhibition
Experimental: as §1, §2

[46] = test system: RXF 393; test: NCI-60 single-dose screen; type: cell-based; conditions: Homo sapiens, single dose 10 µM, '-' = no inhibition, read-out: % Growth Inhibition
Experimental: as §1, §2

[47] = test system: OVCAR-3; test: NCI-60 single-dose screen; type: cell-based; conditions: Homo sapiens, single dose 10 µM, '-' = no inhibition, read-out: % Growth Inhibition
Experimental: as §1, §2

With `COc1ccc(CSc2nc(-c3ccc(Cl)cc3)cc(-c3ccc(OC)c(OC)c3)n2)cc1` [Compound 29, 2-(4-Methoxybenzylthio)-4-(4-chlorophenyl)-6-(3,4-dimethoxyphenyl)pyrimidine] the melting point was 279 to 281 °C, the inhibition at 10 µM [1] was 38.7% and the inhibition at 10 µM [2] was 13.2%. It also gave an inhibition at 10 µM [3] of 38%, an inhibition at 10 µM [4] of 13.9% and an inhibition at 10 µM [5] of 35.6%. For the same compound, the inhibition at 10 µM [6] was 0.85%, the inhibition at 10 µM [7] was 6.14% and the inhibition at 10 µM [8] was 14.2%. It also gave an inhibition at 10 µM [9] of 13.7%, an inhibition at 10 µM [10] of 4.95% and an inhibition at 10 µM [11] of 21.4%. For the same compound, the inhibition at 10 µM [12] was < 0%, the inhibition at 10 µM [13] was 46.5% and the inhibition at 10 µM [14] was 14.2%. For the same compound, the inhibition at 10 µM [15] was 27.4%, the inhibition at 10 µM [16] was 21.2% and the inhibition at 10 µM [17] was 29.7%. The inhibition at 10 µM [18] was 23.1%, the inhibition at 10 µM [19] was 14.6% and the inhibition at 10 µM [20] was 23.1%. The inhibition at 10 µM [21] was 30.3%, the inhibition at 10 µM [22] was < 0% and the inhibition at 10 µM [23] was 42.1%. It also gave an inhibition at 10 µM [24] of 20.9%, an inhibition at 10 µM [25] of 54.5% and an inhibition at 10 µM [26] of 24.8%. The inhibition at 10 µM [27] was 11.3%, the inhibition at 10 µM [28] was 12.7% and the inhibition at 10 µM [29] was 45.8%. It also gave an inhibition at 10 µM [30] of 36.9%, an inhibition at 10 µM [31] of 32.1% and an inhibition at 10 µM [32] of 33%. For the same compound, the inhibition at 10 µM [33] was 36.4%, the inhibition at 10 µM [34] was < 0% and the inhibition at 10 µM [35] was 19.4%. The inhibition at 10 µM [36] was 16.7%, the inhibition at 10 µM [37] was 38.8% and the inhibition at 10 µM [38] was 22.8%. It also gave an inhibition at 10 µM [39] of 1.93%, an inhibition at 10 µM [40] of 17.4% and an inhibition at 10 µM [41] of 19.3%. It also gave an inhibition at 10 µM [42] of 28.6%, an inhibition at 10 µM [43] of 14.7% and an inhibition at 10 µM [44] of 33.1%. The inhibition at 10 µM [45] was 40.2%, the inhibition at 10 µM [46] was 24.2% and the inhibition at 10 µM [47] was < 0%.

From article PMC11576293, “New series of 4,6-diaryl pyrimidines: facile synthesis and antiproliferative activity as dual EGFR/VEGFR-2 inhibitors” (Frontiers in Chemistry, 2024)
